Measurements reported in US11833162B2, “Macrocyclic derivatives, process for preparing same and pharmaceutical compositions containing same” (LES LABORATOIRES SERVIER, priority 2017, dated 2023).
Counter-ions that a name gives are not always drawn.

Key:
Bcl-2 protein = Bcl-2 protein (histag-Bcl-2, UniProtKB P10415) (Homo sapiens, UniProt P10415); assay: Inhibition of Bcl-2 by the fluorescence polarisation technique; assay type: binding; details: fluorescence polarisation, 2 hours incubation; read-out: IC50 (μM) Bcl-2 FP
Bcl-2 protein, sequence (P10415 whole entry): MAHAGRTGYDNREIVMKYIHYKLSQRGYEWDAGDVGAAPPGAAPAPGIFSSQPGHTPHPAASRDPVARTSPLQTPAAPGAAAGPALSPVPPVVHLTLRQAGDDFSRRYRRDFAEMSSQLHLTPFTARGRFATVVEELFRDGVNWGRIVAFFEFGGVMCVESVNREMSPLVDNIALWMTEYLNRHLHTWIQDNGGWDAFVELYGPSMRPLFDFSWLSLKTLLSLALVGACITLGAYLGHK
Description: The fluorescence polarisation tests were carried out on microplates (384 wells). The Bcl-2 protein, labelled (histag-Bcl-2 such that Bcl-2 corresponds to the UniProtKB® primary accession number: P10415), at a final concentration of 5×10^−9M, is mixed with a fluorescent peptide (Fluorescein-REIGAQLRRMADDLNAQY), at a final concentration of 1.00×10^−9M in a buffer solution (Hepes 10 mM, NaCl 150 mM, Tween20 0.05%, pH 7.4), in the presence or absence of increasing concentrations of test compounds. After incubation for 2 hours, the fluorescence polarisation is measured.

[1] = tested on: RS4; 11 leukaemia tumour line; assay: In vitro cytotoxicity, Microculture Tetrazolium Assay (MTT); assay type: cell-based; details: 11 cells, 48 hours exposure
Description: The cytotoxicity studies were carried out on the RS4; 11 leukaemia tumour line.
The cells are distributed onto microplates and exposed to the test compounds for 48 hours.
The cell viability is then quantified by a colorimetric assay, the Microculture Tetrazolium Assay (Cancer Res., 1987, 47, 939-942).

IC50 (Bcl-2 protein) [µM]	SMILES	IC50 [1] [nM]	IC50 ([1]; Homo sapiens, RS4-11, 48 h) [nM]
0.268	Cc1c2cc(n1C)-c1cc(Cl)ccc1C(=O)N1Cc3cccc(c3CC1C)OCCCc1c(cc(C#N)n1C)N(c1ccc(O)cc1)C2=O (single isomer, unassigned) [Example 25, (16R or S)-11-Chloro-4-(4-hydroxyphenyl)-1,7,8,16-tetramethyl-5,14-dioxo-4,5,8,16,17,23,24,25-octahydro-1H,14H-15,18-methano-6,9-(metheno)dibenzo[b,h]-pyrrolo[3,2-p][1,6,11,15]oxatriazacycloicosine-2-carbonitrile]	809	
0.0041	Cc1c2cc(n1C)-c1cc(Cl)ccc1C(=O)N1Cc3cccc(c3CC1C)OCCCc1c(cc(C#N)n1C)N(c1ccc(O)cc1)C2=O (single isomer, unassigned) [Example 26, (16S or R)-11-Chloro-4-(4-hydroxyphenyl)-1,7,8,16-tetramethyl-5,14-dioxo-4,5,8,16,17,23,24,25-octahydro-1H,14H-15,18-methano-6,9-(metheno)-dibenzo[b,h]pyrrolo[3,2-p][1,6,11,15]oxatriazacycloicosine-2-carbonitrile]	1.66	
0.0067	Cc1c2cc(n1C)-c1cc(Cl)ccc1C(=O)N1CCc3c(cccc3OCCOc3cccc(c3)N(c3ccc(O)cc3)C2=O)C1 [Example 1, 6-Chloro-14-(4-hydroxyphenyl)-10,11-dimethyl-20,23-dioxa-1,10,14-triazahexacyclo[26.3.1.1˜9,12˜.1˜15,19−.0˜3,8˜.0˜24.29˜]tetratriaconta-3,5,7,9(34),11,15(3.3),16,18,24,26,28-undecaene-2,13-dione]		107
0.0044	Cc1c2cc(n1C)-c1cc(Cl)ccc1C(=O)N1CCc3c(cccc3OCCCOc3cccc(c3)N(c3ccc(O)cc3)C2=O)C1 [Example 2, 6-Chloro-14-(4-hydroxyphenyl)-10,11-dimethyl-20,24-dioxa-1,10,14-triazahexacyclo[27.3.1.1˜9,12˜.1˜15,19˜.0˜3,8˜.0˜25,30˜]pentatriaconta-3,5,7,9(35),11,15(34),16,18,25,27,29-undecaene-2,13-dione]		179
0.0655	Cc1c2cc(n1C)-c1cc(Cl)ccc1C(=O)N1CCc3c(cccc3OCCCCOc3cccc(c3)N(c3ccc(O)cc3)C2=O)C1 [Example 3, 6-Chloro-14-(4-hydroxyphenyl)-10,11-dimethyl-20,25-dioxa-1,10,14-triazahexacyclo[28.3.1.1˜9,12˜.1˜15,19˜.0˜3,8˜.0˜26,31˜]hexatriaconta-3,5,7,9(36),11,15(35),16,18,26,28,30-undecaene-L 3-dione]		749
0.0023	Cc1c2cc(n1C)-c1cc(Cl)ccc1C(=O)N1CCc3c(cccc3OCCOc3cc(C#N)cc(c3)N(c3ccc(O)cc3)C2=O)C1 [Example 4, 6-Chloro-14-(4-hydroxyphenyl)-10,11-dimethyl-2,13-dioxo-20,23-dioxa-1,10,14-triazahexacyclo[26.3.1.1˜9,12˜.1˜5,19˜.0˜3,8˜.0˜24.29˜]tetratriaconta-3,5,7,9(34),11,15(33),16,18,24,26,28-undecaene-17-carbonitrile]		7.73
0.00205	Cc1c2cc(n1C)-c1cc(Cl)ccc1C(=O)N1CCc3c(cccc3OCCCOc3cc(C#N)cc(c3)N(c3ccc(O)cc3)C2=O)C1 [Example 5, 6-Chloro-14-(4-hydroxyphenyl)-10,11-dimethyl-2,13-dioxo-20,24-dioxa-1,10,14-triazahexacyclo[27.3.1.1˜9,12˜.1˜15,19˜.0˜3,8˜.0˜25,30˜]pentatriaconta-3,5,7,9(35),11,15(34),16,18,25,27,29-undecaene-17-carbonitrile]		21.4
0.003	Cc1c2cc(n1C)-c1cc(Cl)ccc1C(=O)N1CCc3c(cccc3OCCCCn3c(C#N)cc(c3C)N(c3ccc(O)cc3)C2=O)C1 [Example 7, 6-Chloro-14-(4-hydroxyphenyl)-10,11,33-trimethyl-2,13-dioxo-23-oxa-1,10,14,18-tetraazahexacyclo[26.3.1.1˜9,12˜.1˜15,18˜.0˜3,8˜.0˜24,29˜]tetratriaconta-3,5,7,9(34),11,15(33),16,24,26,28-decaene-17-carbonitrile]		4.94
0.00615	Cc1c2cc(n1C)-c1cc(Cl)ccc1C(=O)N1CCc3c(cccc3OCCCn3c(C#N)cc(c3C)N(c3ccc(O)cc3)C2=O)C1 [Example 8, 6-Chloro-14-(4-hydroxyphenyl)-10,11,32-trimethyl-2,13-dioxo-22-oxa-1,10,14,18-tetraazahexacyclo[25.3.1.1˜9,12˜.1˜15,18˜.0˜3,8˜.0˜23,28˜]tritriaconta-3,5,7,9(33),11,15(32),16,23,25,27-decaene-17-carbonitrile]		49.3
0.0023	Cc1c2cc(n1C)-c1cc(Cl)ccc1C(=O)N1CCc3c(cccc3OCCCc3cc(C#N)cc(c3)N(c3ccc(O)cc3)C2=O)C1 [Example 9, 6-Chloro-14-(4-hydroxyphenyl)-10,11-dimethyl-2,13-dioxo-23-oxa-1,10,14-triazahexacyclo[26.3.1.1˜9,12˜.1˜15,19˜.0˜3,8˜.0˜24,29˜]tetratriaconta-3,5,7,9(34),11.15 (33),16,18,24,26,28-undecaene-17-carbonitrile]		5.24
0.299	Cc1c2cc(n1C)-c1cc(Cl)ccc1CN1CCc3c(cccc3OCCc3c(cnn3C)N(c3ccc(O)cc3)C2=O)C1 [Example 10, 11-Chloro-4-(4-hydroxyphenyl)-1,7,8-trimethyl-1,4,16,17,23,24-hexahydro-14H-15,18-methano-6,9-(metheno)dibenzo[l,r]pyrazolo[3,4-d]-[1,6,10,15]oxatriazacyclononadecin-5(8H)-one hydrochloride]		> 300
0.157	Cc1c2cc(n1C)-c1cc(Cl)ccc1CN1CCc3c(cccc3OCCCc3c(cnn3C)N(c3ccc(O)cc3)C2=O)C1 [Example 11, 11-Chloro-4-(4-hydroxyphenyl)-1,7,8-trimethyl-4,16,17,23,24,25-hexahydro-1H,14H-15,18-methano-6,9-(metheno)dibenzo[b,h]pyrazolo[4,3-p]-[1,6,11,15]oxatriazacycloicosin-5(8H)-one]		448
0.0332	Cc1c2cc(n1C)-c1cc(Cl)ccc1C(=O)N1Cc3ccccc3C(COc3ccc(C#N)cc3N(c3ccc(O)cc3)C2=O)C1 (centres unmarked) [Example 13, 12-Chloro-5-(4-hydroxyphenyl)-8,9-dimethyl-6,15-dioxo-6,9,22,23-tetrahydro-5H,15H,17H-16,22-methano-7,10-(metheno)tribenzo[b,j,o][1,4,8,13]oxa-triazacyclooctadecine-3-carbonitrile]		239
0.0147	Cc1c2cc(n1C)-c1cc(Cl)ccc1C(=O)N1CCc3c(cccc3C1)CCCOc1cc(C#N)cc(c1)N(c1ccc(O)cc1)C2=O [Example 14, 6-Chloro-14-(4-hydroxyphenyl)-10,11-dimethyl-2,13-dioxo-20-oxa-1,10,14-triazahexacyclo[26.3.1.1˜9,12˜.1˜15,19˜.0˜3,8˜.0˜24,29˜]tetratriaconta-3,5,7,9(34),11,15(33),16,18,24,26,28-undecaene-17-carbonitrile]		14.6
0.0037	Cc1c2cc(n1C)-c1cc(Cl)ccc1C(=O)N1CCc3c(cccc3OCCCCn3cc(cn3)N(c3ccc(O)cc3)C2=O)C1 [Example 15, Chloro-14-(4-hydroxyphenyl)-10,11-dim ethyl-23-oxa-1,10,14,17,18-pentaazahexacyclo[26.3.1.1˜9,12˜.1˜15,18˜.0˜3,8˜.0˜24,29˜]tetratriaconta-3,5,7, 9(34),11,15(33),16,24,26,28-deca ene-2,13-dione]		11.6
0.0123	Cc1c2cc(n1C)-c1cc(Cl)ccc1C(=O)N1Cc3cccc(c3CC1CN1CCOCC1)OCCCc1c(cnn1C)N(c1ccc(O)cc1)C2=O (centres unmarked) [Example 17, 11-Chloro-4-(4-hydroxyphenyl)-1,7,8-trimethyl-16-(morpholin-4-ylmethyl)-4,16,17,23,24,25-hexahydro-1H,14H-15,18-methano-6,9-(metheno)dibenzo-[b,h]pyrazolo[4,3-p][1,6,11,15]oxatriazacycloicosine-5,14(8H)-dione]		62.8
0.0055	Cc1c2cc(n1C)-c1cc(Cl)ccc1C(=O)N1CCc3c(cccc3OCCc3c(cc(C#N)n3C)N(c3ccc(O)cc3)C2=O)C1 [Example 19, 11-Chloro-4-(4-hydroxyphenyl)-1,7,8-trimethyl-5,14-dioxo-1,4,5,8,16,17,23,24-octahydro-14H-15,18-methano-6,9-(metheno)dibenzo[l,r]pyrrolo-[2,3-d][1,6,10,15]oxatriazacyclononadecine-2-carbonitrile]		10.3
0.0123	Cc1c2cc(n1C)-c1cc(F)ccc1C(=O)N1CCc3c(cccc3OCCc3c(cnn3C)N(c3ccc(O)cc3)C2=O)C1 [Example 20, 11-Fluoro-4-(4-hydroxyphenyl)-1,8-trimethyl-1,4,16,17,23,24-hexahydro-14H-15,18-methano-6,9-(metheno)dibenzo[l,r]pyrazolo[3,4-d][1,6,10,15]oxatriazacyclo-nonadecine-5,14(8H)-dione]		81.2
0.0148	Cc1c2cc(n1C)-c1cc(Cl)ccc1C(=O)N1CCc3c(cccc3OCCOc3c(cnn3C)N(c3ccc(O)cc3)C2=O)C1 [Example 21, 11-Chloro-4-(4-hydroxyphenyl)-1,7,8-trimethyl-1,4,16,17,23,24-hexahydro-14H-15,18-methano-6,9-(metheno)dibenzo[m,s]pyrazolo[3,4-e][1,4,7,11,16]dioxa-triazacycloeicosin-5,14(8H)-dione]		131
